The source of these data is patent US20210122763A1, “OGA INHIBITOR COMPOUNDS” (Janssen Pharmaceutica NV, priority 2018, published 2021).

Experiment [1] concerns the target T1, recombinant human Meningioma Expressed Antigen 5 (MGEA5), also referred to as O-GlcNAcase (OGA) (Homo sapiens, UniProt O60502).
T1 construct: Full length OGA enzyme was purchased at OriGene (cat #TP322411); purchased OriGene TP322411
T1 sequence (O60502 1-916): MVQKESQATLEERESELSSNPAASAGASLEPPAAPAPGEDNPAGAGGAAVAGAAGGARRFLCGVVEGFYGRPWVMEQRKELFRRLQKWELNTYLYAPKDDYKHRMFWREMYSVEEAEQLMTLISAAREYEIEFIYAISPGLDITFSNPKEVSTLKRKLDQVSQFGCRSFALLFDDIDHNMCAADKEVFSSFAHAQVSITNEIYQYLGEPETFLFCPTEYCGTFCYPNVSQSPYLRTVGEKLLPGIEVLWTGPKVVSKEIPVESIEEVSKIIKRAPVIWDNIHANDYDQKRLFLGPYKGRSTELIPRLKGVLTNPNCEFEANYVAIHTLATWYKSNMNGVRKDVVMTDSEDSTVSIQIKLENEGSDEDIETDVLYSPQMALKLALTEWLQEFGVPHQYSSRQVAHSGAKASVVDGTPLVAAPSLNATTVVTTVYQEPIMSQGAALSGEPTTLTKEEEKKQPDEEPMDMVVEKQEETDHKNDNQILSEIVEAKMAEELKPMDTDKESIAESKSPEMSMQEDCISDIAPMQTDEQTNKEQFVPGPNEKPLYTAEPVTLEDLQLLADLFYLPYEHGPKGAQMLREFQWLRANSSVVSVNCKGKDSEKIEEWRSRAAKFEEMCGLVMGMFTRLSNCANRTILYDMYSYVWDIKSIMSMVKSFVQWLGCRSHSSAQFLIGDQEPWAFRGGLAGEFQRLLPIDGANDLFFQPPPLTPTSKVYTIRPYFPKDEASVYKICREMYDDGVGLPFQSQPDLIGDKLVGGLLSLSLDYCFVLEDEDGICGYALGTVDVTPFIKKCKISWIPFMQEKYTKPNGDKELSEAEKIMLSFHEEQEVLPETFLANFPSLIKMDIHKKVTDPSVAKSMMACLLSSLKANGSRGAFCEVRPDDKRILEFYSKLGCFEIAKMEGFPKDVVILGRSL
As to the kind of experiment: OGA biochemical assay (inhibition of FM-GlcNAc hydrolysis, fluorescence). The conditions noted are these: for Emax: read-out: Enzymatic Emax (%); for IC50: read-out: Enzymatic hOGA, pIC50 (converted). In a few lines:
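Full-length OGA at 2 nM was pre-incubated 60 min at room temperature with compound, then FM-GlcNAc at 100 uM final was added in citrate/phosphate buffer pH 7.2 with 0.005% Tween-20. After 6 h at room temperature, carbonate pH 11.0 stopped the reaction. Fluorescence read at 485/538 nm; IC50 and Hill coefficient from curve fit against no-inhibitor and saturating-standard controls.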

Experiment [2] has as its target T2, OGA (Homo sapiens, UniProt O60502).
T2 construct: HEK293 cells inducible for P301L mutant human Tau (isoform 2N4R) were established at Janssen; endogenous in cells; host or cells: HEK293 cells inducible for P301L mutant human Tau (2N4R)
T2 sequence (O60502 1-916): T1 sequence (O60502 1-916)
As to the kind of experiment: OGA cellular assay (ICC detection of O-GlcNAcylated proteins in HEK293 cells inducible for P301L mutant human Tau). It is filed as cell-based. The conditions noted are these: 6 hours incubation; for Emax: HEK293, HEK293 cells inducible for P301L mutant human Tau; for Emax / Cellular Emax (%): maximum = Thiamet G 200 uM; for EC50 / Cellular Emax (%): HEK293 cells inducible for P301L mutant human Tau; for EC50: read-out: Cellular hOGA, pEC50 (converted). In a few lines:
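HEK293 cells with inducible P301L 2N4R Tau, seeded in low-glucose medium, were exposed to compounds for 6 hours (0.2% DMSO), then PFA-fixed and stained with CTD110.6. Imaging intensity at 488 nm measured O-GlcNAcylation, with Hoechst nuclei counts for toxicity. IC50s came from non-linear regression, with Thiamet G at 200 uM as maximum inhibition.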

Regarding `COc1cc(OC2CCN(C(C)c3nc4c(cc3F)OCCO4)CC2)ncc1C#N` (centres unmarked) [Compound 153], in experiment [1], the Emax is 95% and the IC50 is 31.6 nM. Also, in experiment [2], the Emax amounted to 67% and the EC50 was 200 nM.

Regarding `Cc1cc(OC2CCN(C(C)c3ccc4c(n3)OCCO4)CC2)cc(C2CC2)n1` (centres unmarked) [Compound 125], in experiment [1], the Emax was 96% and the IC50 is 31.6 nM. Besides, in experiment [2], the Emax was 91% and the EC50 is 126 nM.

In the case of `Cc1cc(OC2CCN(C(C)c3cc4nc(C)sc4cc3F)CC2)nc(C)n1` (centres unmarked) [Compound 38], in experiment [1], the Emax amounted to 101% and the IC50 is 15.8 nM. In addition, in experiment [2], the Emax turned out to be 64% and the EC50 is 251 nM.

For the compound `Cc1ncc(OC2CCN(C(C)c3ccc4c(n3)OCCO4)CC2)cc1F` (centres unmarked) [Compound 152], in experiment [1], the Emax came to 93% and the IC50 was 100 nM. In addition, the Emax in experiment [2] is 42%.

With `Cc1cc(OC2CCN(C(C)c3ccc4c(n3)OCCO4)CC2)ncc1C#N` (centres unmarked) [Compound 101], in experiment [1], the Emax came out at 94% and the IC50 was 100 nM. Besides, in experiment [2], the Emax came out at 53% and the EC50 was 501 nM.

As for `Cc1cnc(C)c(OC2CCN(C(C)c3nc4c(cc3F)OCCO4)CC2)n1` (centres unmarked) [Compound 87], in experiment [1], the Emax was 97% and the IC50 was 15.8 nM. In experiment [2], the Emax is 62% and the EC50 was 355 nM.

For `Cc1cc(OC2CCN(C(C)c3ccc4c(n3)OCCO4)CC2)cc(C)n1` (single isomer, unassigned) [Compound 3], in experiment [1], the “Enzymatic Emax (%)” value is reported as 103% and the IC50 is 50.1 nM. For the same compound, in experiment [2], the “Cellular Emax (%)” value is 83% and the EC50 was 251 nM.

Take `COc1cc(OC2CCN(C(C)c3ccc4c(n3)OCCO4)CC2)ncc1C#N` (centres unmarked) [Compound 103]: in experiment [1], the Emax amounted to 97% and the IC50 was 79.4 nM. This compound returned a maximal response (Emax) in experiment [2] of 52%.

Regarding `COc1cc(C#N)cnc1OC1CCN(C(C)c2ccc3c(n2)OCCO3)CC1` (centres unmarked) [Compound 102], in experiment [1], the Emax stood at 95% and the IC50 was 501 nM. In experiment [2], the Emax is 10% and the EC50 was more than 1000 nM.

On to `Cc1cc(COC2CCN(C(C)c3nc4c(cc3F)OCCO4)CC2)cc(C(F)(F)F)n1` (centres unmarked) [Compound 169], for which, in experiment [1], the Emax came out at 96% and the IC50 was 12.6 nM. Further, in experiment [2], the Emax was 87% and the EC50 is 51.3 nM.

In the case of `Cc1cc(OC2CCN(C(C)c3ccc4c(n3)OCCO4)CC2)cc(C)n1` (single isomer, unassigned) [Compound 2], in experiment [1], the “Enzymatic Emax (%)” value came to 29% and the IC50 is more than 10000 nM. Further, in experiment [2], the “Cellular Emax (%)” value is reported as −14% and the EC50 is more than 1000 nM.

Consider `Cc1cc(OC2CCN(C(C)c3ccc4sc(C)nc4n3)CC2)c(Cl)c(C)n1` (centres unmarked) [Compound 27], for which, in experiment [1], the Emax came out at 99% and the IC50 was 100 nM. Moreover, in experiment [2], the Emax came out at 76% and the EC50 is 501 nM.

Turning to `CC(c1ccc2c(n1)OCCO2)N1CCC(Oc2ccc(C(F)(F)F)cn2)CC1` (centres unmarked) [Compound 42], in experiment [1], the Emax turned out to be 101% and the IC50 is 100 nM. Besides, in experiment [2], the Emax was found to be 21% and the EC50 is more than 1000 nM.

Take `Cc1cc(OC2CCN(C(C)c3cnc4c(c3)OCCN4)CC2)cc(C)n1` (centres unmarked) [Compound 34]: in experiment [1], the Emax worked out at 102% and the IC50 is 158 nM. Also, in experiment [2], the Emax came to 77% and the EC50 is 158 nM.

For `Cc1cc(COC2CCN(C(C)c3nc4nc(C)sc4cc3F)CC2)cc(C)n1` (centres unmarked) [Compound 160], in experiment [1], the Emax stood at 96% and the IC50 was 12.6 nM. Further, in experiment [2], the Emax is 87% and the EC50 was 39.8 nM.

For the compound `Cc1cc(C#N)cnc1OC1CCN(C(C)c2ccc3c(n2)OCCO3)CC1` (centres unmarked) [Compound 97], in experiment [1], the Emax turned out to be 94% and the IC50 was 398 nM. For the same compound, in experiment [2], the Emax turned out to be 20% and the EC50 is more than 1000 nM.
